The results in this text go back to patent US10968203B2, “Pyrimidinyl-pyridyloxy-naphthyl compounds and methods of treating IRE1-related diseases and disorders” (Genentech, Inc., priority 2017, dated 2021).

The term IC50 denotes the point on the concentration scale where inhibition reaches its midpoint.

Counter-ions that a name gives are not always drawn. Like-named read-outs stand apart in the source and are kept apart here.

The experiment has as its system XBP1s-luc 293 LUC. In words: cellular PD assay, XBP1s-LUC reporter (Example 903). In kind it is cell-based. As to conditions: read-out: XBP1s-luc 293 LUC (IC50). In short, it runs like this:
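Cellular IRE1α pathway activity was quantified from the luciferase signal of an XBP1-Luc reporter, where the luciferase fusion is in frame and expressed only from the spliced XBP1 transcript.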

On to `CC/C(F)=C/S(=O)(=O)Nc1c(F)ccc2c(Oc3ncccc3-c3ccnc(N[C@H]4CCCNC4)n3)c(C)ccc12` [Example 457, (S,Z)-2-Fluoro-N-(2-fluoro-6-methyl-5-((3-(2-(piperidin-3-ylamino)pyrimidin-4-yl)pyridin-2-yl)oxy)naphthalen-1-yl)but-1-ene-1-sulfonamide hydrochloride], for which the half-maximal inhibitory concentration (IC50) (Table 2) came out at 0.105 µM.
As for `Cc1ccc2c(NS(=O)(=O)CC3CCC3)cccc2c1Oc1ncccc1-c1ccnc(N[C@H]2CCCNC2)n1` [Example 127, (S)-1-Cyclobutyl-N-(6-methyl-5-((3-(2-(piperidin-3-ylamino)pyrimidin-4-yl)pyridin-2-yl)oxy)naphthalen-1-yl)methanesulfonamide], the IC50 (Table 1) was 0.233 µM.
For the compound `Cc1ccc2c(NC(=O)C3CC34CC4)c(F)ccc2c1Oc1ncccc1-c1ccnc(N[C@H]2CCCNC2)n1` (stereo partly drawn) [Example 465, N-(2-Fluoro-6-methyl-5-((3-(2-(((S)-piperidin-3-yl)amino)pyrimidin-4-yl)pyridin-2-yl)oxy)naphthalen-1-yl)spiro[2.2]pentane-1-carboxamide], under “Table 2”, the IC50 is 0.057 µM.
As for `CCCS(=O)(=O)Nc1cccc2c(Oc3ncccc3-c3ccnc(N[C@@H]4CNC[C@H](C)C4)n3)c(C)ccc12` [Example 361, N-(6-Methyl-5-((3-(2-(((3S,5R)-5-methylpiperidin-3-yl)amino)pyrimidin-4-yl)pyridin-2-yl)oxy)naphthalen-1-yl)propane-1-sulfonamide], the IC50 (Table 1) amounted to 0.0851 µM.
As to `Cc1ccc2c(NS(=O)(=O)Cc3ccccn3)c(F)ccc2c1Oc1ncccc1-c1ccnc(N[C@H]2CCCNC2)n1` [Example 494, (S)—N-(2-Fluoro-6-methyl-5-((3-(2-(piperidin-3-ylamino)pyrimidin-4-yl)pyridin-2-yl)oxy)naphthalen-1-yl)-1-(pyridin-2-yl)methanesulfonamide hydrochloride], the half-inhibitory concentration (IC50) (Table 2) turned out to be 0.0125 µM.
With `Cc1ccc2c(NS(=O)(=O)Cc3ccccc3Cl)cccc2c1Oc1ncccc1-c1ccnc(N[C@H]2CCCNC2)n1` [Example 135, (S)-1-(2-Chlorophenyl)-N-(6-methyl-5-((3-(2-(piperidin-3-ylamino)pyrimidin-4-yl)pyridin-2-yl)oxy)naphthalen-1-yl)methanesulfonamide], the IC50 (Table 1) came to 0.01 µM.
For the compound `Cc1ccc2c(NS(=O)(=O)Cc3ccccc3F)cccc2c1Oc1ncccc1-c1ccnc(N[C@H]2CCCNC2)n1` [Example 145, (S)-1-(2-Fluorophenyl)-N-(6-methyl-5-((3-(2-(piperidin-3-ylamino)pyrimidin-4-yl)pyridin-2-yl)oxy)naphthalen-1-yl)methanesulfonamide], for the setting “Table 1”, the IC50 amounted to 0.015 µM.
On the same count and under the same terms, in the case of `Cc1ccc2c(NS(=O)(=O)CC(C)(C)C)c(F)ccc2c1Oc1ncccc1-c1ccnc(N[C@H]2CCCNC2)n1` [Example 350, (S)—N-(2-Fluoro-6-methyl-5-((3-(2-(piperidin-3-ylamino)pyrimidin-4-yl)pyridin-2-yl)oxy)naphthalen-1-yl)-2,2-dimethylpropane-1-sulfonamide] it was 0.0374 µM.
Take `Cc1ccc2c(NC(=O)CC3(C)CCCCC3)cccc2c1Oc1ncccc1-c1ccnc(N[C@H]2CCCNC2)n1` [Example 264, (S)—N-(6-Methyl-5-((3-(2-(piperidin-3-ylamino)pyrimidin-4-yl)pyridin-2-yl)oxy)naphthalen-1-yl)-2-(1-methylcyclohexyl)acetamide hydrochloride]: where the note is “Table 1”, the half-inhibitory concentration (IC50) was 0.35 µM.
Same read-out and setting: under `Cc1ccc2c(NS(=O)(=O)Cc3ccc(F)cc3F)c(F)ccc2c1Oc1ncccc1-c1ccnc(N[C@H]2CCCNC2)n1` [Example 186, (S)-1-(2,4-Difluorophenyl)-N-(2-fluoro-6-methyl-5-((3-(2-(piperidin-3-ylamino)pyrimidin-4-yl)pyridin-2-yl)oxy)naphthalen-1-yl)methanesulfonamide] stands 0.00489 µM; under `Cc1ccc2c(NC(=O)C3CC3C(C)C)cccc2c1Oc1ncccc1-c1ccnc(N[C@H]2CCCNC2)n1` (single isomer, unassigned) [Example 230], 0.08 µM.
As to `Cc1ccc2c(NS(=O)(=O)CC(C)C)c(F)ccc2c1Oc1ncccc1-c1ccnc(N[C@@H]2CNC[C@@H](C)C2)n1` [Example 401, N-[2-Fluoro-6-methyl-5-[[3-[2-[[(3S,5S)-5-methyl-3-piperidyl]amino]pyrimidin-4-yl]-2-pyridyl]oxy]-1-naphthyl]-2-methyl-propane-1-sulfonamide hydrochloride], the 50% inhibitory concentration (IC50) (Table 2) turned out to be 0.067 µM.
Regarding `Cc1ccc2c(NC(=O)[C@@H]3CC34CC4)cccc2c1Oc1ncccc1-c1ccnc(N[C@H]2CCCNC2)n1` (single isomer, unassigned) [Example 218], the IC50 (Table 1) was 0.174 µM.
Same read-out and setting: in the case of `Cc1ccc2c(NC(=O)CC3CCCCC3)cccc2c1Oc1ncccc1-c1ccnc(N[C@@H]2CNC[C@H](C)C2)n1` [Example 303, 2-Cyclohexyl-N-(6-methyl-5-((3-(2-(((3S,5R)-5-methylpiperidin-3-yl)amino)pyrimidin-4-yl)pyridin-2-yl)oxy)naphthalen-1-yl)acetamide] it was 0.126 µM.
Take `Cc1cc(CS(=O)(=O)Nc2c(F)ccc3c(Oc4ncccc4-c4ccnc(N[C@H]5CCCNC5)n4)c(C)ccc23)no1` [Example 412, (S)—N-(2-Fluoro-6-methyl-5-((3-(2-(piperidin-3-ylamino)pyrimidin-4-yl)pyridin-2-yl)oxy)naphthalen-1-yl)-1-(5-methylisoxazol-3-yl)methanesulfonamide hydrochloride]: the IC50 (Table 2) is 0.007 µM.
As to `Cc1ccc2c(NC(=O)Cc3cccc(F)c3)cccc2c1Oc1ncccc1-c1ccnc(N[C@H]2CCCNC2)n1` [Example 193, (S)-2-(3-Fluorophenyl)-N-(6-methyl-5-((3-(2-(piperidin-3-ylamino)pyrimidin-4-yl)pyridin-2-yl)oxy)naphthalen-1-yl)acetamide], the half-inhibitory concentration (IC50) (Table 1) was found to be 0.086 µM.
The same measure, in the same setting: under `Cc1ccc2c(N3CC[C@H](C)C3=O)cccc2c1Oc1ncccc1-c1ccnc(N[C@H]2CCCNC2)n1` (single isomer, unassigned) [Example 257] stands 0.264 µM; under `Cc1cc(NS(=O)(=O)Cc2ccccc2)c2ccccc2c1Oc1ncccc1-c1ccnc(N[C@H]2CCCNC2)n1` [Example 163, (S)—N-(3-Methyl-4-((3-(2-(piperidin-3-ylamino)pyrimidin-4-yl)pyridin-2-yl)oxy)naphthalen-1-yl)-1-phenylmethanesulfonamide], 0.047 µM; under `Cc1ccc2c(NC3CCCC3O)cccc2c1Oc1ncccc1-c1ccnc(N[C@H]2CCCNC2)n1` (mixture of isomers) [Example 383, anti-2-((6-Methyl-5-((3-(2-((S)-piperidin-3-ylamino)pyrimidin-4-yl)pyridin-2-yl)oxy)naphthalen-1-yl)amino)cyclopentanol], 0.231 µM.
As for `CCCS(=O)(=O)Nc1c(C)ccc2c(Oc3ncccc3-c3ccnc(N[C@H]4CCCNC4)n3)c(C)ccc12` [Example 285, (S)—N-(2,6-Dimethyl-5-((3-(2-(piperidin-3-ylamino)pyrimidin-4-yl)pyridin-2-yl)oxy)Naphthalen-1-yl)propane-1-sulfonamide], under “Table 1”, the half-maximal inhibitory concentration (IC50) came out at 0.071 µM.
Turning to `Cc1ccc2c(NS(=O)(=O)Cc3cccc(F)c3F)c(F)ccc2c1Oc1ncccc1-c1ccnc(N[C@H]2CCCNC2)n1` [Example 189, (S)-1-(2,3-Difluorophenyl)-N-(2-fluoro-6-methyl-5-((3-(2-(piperidin-3-ylamino)pyrimidin-4-yl)pyridin-2-yl)oxy)naphthalen-1-yl)methanesulfonamide], the half-inhibitory concentration (IC50) (Table 1) amounted to 0.00507 µM.
Same read-out and setting: under `Cc1ccc2c(NC(=O)[C@@H]3C[C@H]3F)cccc2c1Oc1ncccc1-c1ccnc(N[C@H]2CCCNC2)n1` [Example 236, (1S,2R)-2-Fluoro-N-(6-methyl-5-((3-(2-(((S)-piperidin-3-yl)amino)pyrimidin-4-yl)pyridin-2-yl)oxy)naphthalen-1-yl)cyclopropane-1-carboxamide] stands 0.174 µM.
Still for that read-out and setting: under `COC(=O)CNc1cccc2c(Oc3ncccc3-c3ccnc(N[C@H]4CCCNC4)n3)c(C)ccc12` [Example 314, (S)-Methyl 2-((6-methyl-5-((3-(2-(piperidin-3-ylamino)pyrimidin-4-yl)pyridin-2-yl)oxy)naphthalen-1-yl)amino)acetate] stands 0.208 µM.
Take `CCN(C)S(=O)(=O)Nc1c(F)ccc2c(Oc3ncccc3-c3ccnc(N[C@H]4CCCNC4)n3)c(C)ccc12` [Example 421, 4-[2-[[5-[[Ethyl(methyl)sulfamoyl]amino]-6-fluoro-2-methyl-1-naphthyl]oxy]-3-pyridyl]-2-[[(3S)-3-piperidyl]amino]pyrimidine hydrochloride]: the IC50 (Table 2) stood at 0.044 µM.
On to `Cc1ccc2c(-n3nccc3C)cccc2c1Oc1ccccc1-c1ccnc(N[C@H]2CCCNC2)n1` [Example 246, (S)-4-(2-((2-Methyl-5-(5-methyl-1H-pyrazol-1-yl)naphthalen-1-yl)oxy)phenyl)-N-(piperidin-3-yl)pyrimidin-2-amine], for which the IC50 (Table 1) was 0.235 µM.
For the compound `Cc1ccc2c(NS(=O)(=O)CCC(C)(F)F)c(F)ccc2c1Oc1ncccc1-c1ccnc(N[C@@H]2CNC[C@@H](F)C2)n1` (single isomer, unassigned) [Example 498, hydrochloride], the half-maximal inhibitory concentration (IC50) (Table 2) was found to be 0.033 µM.
The same measure, in the same setting: in the case of `CCC(F)(F)CS(=O)(=O)Nc1c(F)ccc2c(Oc3ncccc3-c3ccnc(N[C@H]4CNC[C@H](F)C4)n3)c(C)ccc12` (single isomer, unassigned) [Example 495, hydrochloride] it was 0.469 µM.
Consider `Cc1ccc2c(NS(=O)(=O)CC(C)C(F)(F)F)c(F)ccc2c1Oc1ncccc1-c1ccnc(N[C@H]2CCCNC2)n1` (single isomer, unassigned) [Example 455, hydrochloride], for which the IC50 (Table 2, hydrochloride) was 0.018 µM.
In the case of `Cc1ccc2c(NS(=O)(=O)Cc3ccccc3)cccc2c1Oc1ncccc1-c1ccnc(N[C@H]2CCCNC2)n1` [Example 112, (S)—N-(6-Methyl-5-((3-(2-(piperidin-3-ylamino)pyrimidin-4-yl)pyridin-2-yl)oxy)naphthalen-1-yl)-1-phenylmethanesulfonamide hydrochloride], where the note is “Table 1”, the half-maximal inhibitory concentration (IC50) turned out to be 0.021 µM.
